# Data taken from patent US20240293395A1, “NALTREXONE FOR IMPROVING THE […] OF 5-HT RECEPTOR SUBTYPE 2A, 2B or 2C AGONISTS” (LDN Pharma Limited, priority 2021, published 2024).
# Key:
# [1] = system: mRNA for one or more of 5-HT2A, 5-HT2B or 5-HT2C receptor proteins; assay: Microarray gene expression in CD3+ lymphocytes, summary statement over 5-HT2 receptors; format: cell-based, human; conditions: both higher dose (10 uM) and low dose (10 nM) naltrexone, 4 h
# Method: (§1) CD3+ lymphocytes were isolated from the blood of haematologically normal volunteers. Cells placed into 25 cm3 flasks at a concentration of 1×10^6/ml, and left to equilibrate in an incubator with a humidified atmosphere and 5% CO2 in air at 37° C. […] RNA extraction was performed using Trizol according to standard procedures, before being processed for microarray analysis according to the standard methodologies. Briefly, equal amounts of biotinylated cRNA was hybridised to the Illumina human HT12-v3 arrays for 18 h and subsequently processed according to manufacturer's instructions before scanning on an Illumina BeadArray Reader. The image data were processed using default values in GenomeStudio v2009.1 with imputation of missing data, before loading onto GeneSpring v9.0 for data normalisation and filtering. Data analyses were performed using Excel software, and the ratio of gene expression signals in treated vs. untreated calculated.
# [2] = system: 5-HT receptor 2B (HTR2B), mRNA; assay: Microarray gene expression in CD3+ lymphocytes, HTR2B probe ILMN_1735764; format: cell-based, human; conditions: 4 h, Illumina HT12-v3 array
# Method: as §1
structure (smiles),measurement,setting,value
"O=C1CC[C@@]2(O)[C@H]3Cc4ccc(O)c5c4[C@@]2(CCN3CC2CC2)[C@H]1O5 [NTX, morphinan-6-one, 17-(cyclopropylmethyl)-4,5-epoxy-3,14-dihydroxy-(5α)]","levels of mRNA for one or more of 5-HT2A, 5-HT2B or 5-HT2C receptor proteins",[1],selectively increase the levels of mRNA
same,"gene expression signal, LDN",[2]; low dose naltrexone 10 nM,147.45
same,"gene expression signal, NTX",[2]; naltrexone 10 uM,177.95
